Measured values taken from patent US20260116922A1 (UNIVERSITAET WIEN, priority 2021, published 2026).
*1 amine or outer side, *2 acyl side, *3 side chain or, on linkers, in order; H or OH if unused. Where a SMILES comes first, the peptide text is derived from it. Bridges are numbered along the chain shown (N, C = ends). [ ]: non-standard residue; d: D form. The star is where a group is joined. N(4-F-Bzl)Gly = O=C(O)CNCc1ccc(F)cc1; αMeY = C[C@](N)(Cc1ccc(O)cc1)C(=O)O; Gly(cPent) = N[C@H](C(=O)O)C1CCCC1; αMeL = CC(C)C[C@](C)(N)C(=O)O; αMeV = CC(C)[C@](C)(N)C(=O)O; Thz = O=C(O)[C@@H]1CSCN1; X1 = O=C(CCC[*:2])[*:1]; Dap = NC[C@H](N)C(=O)O; Piv = CC(C)(C)C(=O)*

biological target: T1, Human OTR (Homo sapiens, UniProt P30559); assay: IP-1 accumulation in HEK293 cells stably expressing hOTR-GFP; assay type: cell-based; conditions: 1 h stimulation at 37° C., normalized to maximum OT response
T1 construct: expressed in transfected cells; host or cells: HEK293 (stably transfected, G418 selection)
T1 sequence (P30559 1-389): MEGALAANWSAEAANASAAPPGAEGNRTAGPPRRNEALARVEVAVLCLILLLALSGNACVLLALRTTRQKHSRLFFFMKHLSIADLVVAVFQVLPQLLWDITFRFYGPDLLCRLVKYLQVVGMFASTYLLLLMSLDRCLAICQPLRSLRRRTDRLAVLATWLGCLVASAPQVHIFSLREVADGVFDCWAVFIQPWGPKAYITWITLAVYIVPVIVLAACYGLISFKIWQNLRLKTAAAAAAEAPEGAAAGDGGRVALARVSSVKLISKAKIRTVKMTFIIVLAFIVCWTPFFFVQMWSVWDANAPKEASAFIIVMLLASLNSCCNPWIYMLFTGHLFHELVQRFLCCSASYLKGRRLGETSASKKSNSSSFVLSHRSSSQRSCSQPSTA
Procedure: Cell culture for functional assays.
Measurement of inositol phosphate one (IP-1) accumulation. HEK293 cells were cultured in DMEM supplemented with 10% FBS and penicillin/streptomycin (100 U mL^−1) at 37° C. and 5% CO2. Cells were transferred into white opaque 384-well plates (CellStar®, Greiner, Austria) at ˜10,000 cells per well 48 h prior to measurement. Quantitative measurements of receptor-mediated IP-1 were performed by competitive immunoassay utilizing the IP-One assay kit [9]. HEK293 cells were assayed as per the manufacturer's protocol. Briefly, at the time of analysis, the culture media was removed and replaced with IP-1 stimulation buffer. Cells were allowed to equilibrate in the stimulation buffer at 37° C. for 15 min, followed by addition of peptide ligands (to final concentrations of 1 μM-10 μM) and subsequent stimulation for 1 h at 37° C. The stimulation was terminated by lysis and the simultaneous addition of homogenous time-resolved fluorescence resonance energy transfer reagents. The lysates were incubated for 1 h at 25° C. Fluorescence emission measurements at 620 nm and 665 nm were performed using a Spark Multimode plate reader (Tecan, Switzerland) at an excitation wavelength of 340 nm. Results were analyzed as a ratio of fluorescence intensities of 665 nm to 620 nm. […]

SMILES | EC50 [nM]
CC[C@H](C)[C@@H]1NC(=O)[C@H](Cc2ccc(OC)cc2)NC(=O)CCCSC[C@@H](C(=O)N(CC(=O)N[C@@H](CNC(C)=O)C(=O)NCC(N)=O)Cc2ccc(F)cc2)NC(=O)[C@H](CC(N)=O)NC(=O)[C@H](CCC(N)=O)NC1=O [Compound 8] (Y(Me)IQNC[N(4-F-Bzl)Gly][Dap](Ac)G-NH2; linker N-5 via X1) | > 500

system: not listed separately; assay: in vitro; conditions: simulated gi fluid, pH 6.8
Procedure: (§1) Simulated intestinal fluid (SIF). […] The solution was centrifuged, and syringe filtered before use.
(§2) Stability assay procedure. Stock solutions (1 mM) of test peptides were prepared in ddH2O. […] The peptide stock solution (30 μL) was added to the fluid, the mixture was vortexed and incubated at 37° C. […] All samples were centrifuged (5 min, 16,000×g) and stored at 4° C. before analysis.
(§3) RP-HPLC-UV(-MS) analysis of stability samples. […] 30 μL sample were injected on a Kromasil Classic C1S HPLC column (2.1×150 mm, 100 Å, 5 μm) equipped with a guard column (C18, 100 Å, 5 μm, 2.1 mm). […] Solvent A: 0.1% TFA in ddH2O. Solvent B: 0.08% TFA in ACN.
(§4) Data analysis. […] Peak areas (mAU×min) at individual time points were normalized to the mean value of time point zero (y(t0)=100%). To calculate compound half-lives (t1/2), a one-phase exponential decay function was fitted to normalized data points via a nonlinear regression in GraphPad Prism (Version 9) (GraphPad Software Inc., La Jolla, California, USA). The following constraints were applied: (i) y(t0) constant equal to 100, (ii) plateau constant equal to 0.

SMILES | half-life at 50 µM [min]
CC[C@H](C)[C@@H]1NC(=O)[C@H](Cc2ccc(O)cc2)NC(=O)[C@@H](N)CSSC[C@@H](C(=O)N2CCC[C@H]2C(=O)N[C@@H](CC(C)C)C(=O)NCC(N)=O)NC(=O)[C@H](CC(N)=O)NC(=O)[C@H](CCC(N)=O)NC1=O [OT, oxytocin] | 8 ± 1

system: not listed separately; assay: in vitro; conditions: simulated gi fluid

SMILES | half-life [min]
CC[C@H](C)[C@@H]1NC(=O)[C@H](Cc2ccc(O)cc2)NC(=O)[C@@H](N)CSSC[C@@H](C(=O)N2CCC[C@H]2C(=O)N[C@@H](CC(C)C)C(=O)NCC(N)=O)NC(=O)[C@H](CC(N)=O)NC(=O)[C@H](CCC(N)=O)NC1=O [OT, oxytocin] | > 1440

system: not listed separately; assay: Stability in simulated intestinal fluid (SIF); conditions: relative stability compared with SIF stability of oxytocin (8±1 min); SIF pH 6.8, pancreatin, 37° C.
Procedure: as §1, §2, §3, §4

SMILES | SIF stability [fold OT]
COc1ccc(C[C@@H]2NC(=O)CCCSC[C@@H](C(=O)N3CCC[C@H]3C(=O)N[C@@H](CCCCNC(C)=O)C(=O)NCC(N)=O)NC(=O)[C@H](CC(N)=O)NC(=O)[C@H](CCC(N)=O)NC(=O)[C@H](C3CCCC3)NC2=O)cc1 [Compound 21] (Y(Me)[Gly(cPent)]QNCPK(Ac)G-NH2; linker N-5 via X1) | >100 fold OT
CC[C@H](C)[C@@H]1NC(=O)[C@H](Cc2ccc(OC)cc2)NC(=O)CCCSC[C@@H](C(=O)N2CCC[C@H]2C(=O)N[C@@H](CCCCNC(C)=O)C(=O)NCC(N)=O)NC(=O)[C@H](CC(N)=O)NC(=O)[C@H](CCC(N)=O)NC1=O [Compound 5] (Y(Me)IQNCPK(Ac)G-NH2; linker N-5 via X1) | >100 fold OT
CC(=O)NCCCC[C@H](NC(=O)[C@@H]1CSCN1C(=O)[C@@H]1CSCCCC(=O)N[C@@H](Cc2ccc(O)cc2)C(=O)N[C@@](C)(C(C)C)C(=O)N[C@@H](CCC(N)=O)C(=O)N[C@@H](CC(N)=O)C(=O)N1)C(=O)NCC(N)=O [Compound 20] (Y[αMeV]QNC[Thz]K(Ac)G-NH2; linker N-5 via X1) | > 100 fold OT
CC[C@H](C)[C@@H]1NC(=O)[C@](C)(Cc2ccc(O)cc2)NC(=O)CCCSC[C@@H](C(=O)N2CCC[C@H]2C(=O)N[C@@H](CCCCNC(C)=O)C(=O)NCC(N)=O)NC(=O)[C@H](CC(N)=O)NC(=O)[C@H](CCC(N)=O)NC1=O [Compound 16] ([αMeY]IQNCPK(Ac)G-NH2; linker N-5 via X1) | >100 fold OT
CC[C@H](C)[C@@H]1NC(=O)[C@](C)(Cc2ccc(O)cc2)NC(=O)CCCSC[C@@H](C(=O)N2CCC[C@H]2C(=O)N[C@@H](CNC(C)=O)C(=O)NCC(N)=O)NC(=O)[C@H](CC(N)=O)NC(=O)[C@H](CCC(N)=O)NC1=O [Compound 9] ([αMeY]IQNCP[Dap](Ac)G-NH2; linker N-5 via X1) | >100 fold OT
CC[C@H](C)[C@@H]1NC(=O)[C@H](Cc2ccc(OC)cc2)NC(=O)CCCSC[C@@H](C(=O)N2CSC[C@H]2C(=O)N[C@@H](CCCCNC(C)=O)C(=O)NCC(N)=O)NC(=O)[C@H](CC(N)=O)NC(=O)[C@H](CCC(N)=O)NC1=O [Compound 22] (Y(Me)IQNC[Thz]K(Ac)G-NH2; linker N-5 via X1) | >100 fold OT
CC[C@H](C)[C@@H]1NC(=O)[C@H](Cc2ccc(O)cc2)NC(=O)[C@@H](N)CSSC[C@@H](C(=O)N2CCC[C@H]2C(=O)N[C@H](CC(=O)NCC(N)=O)CC(C)C)NC(=O)[C@H](CC(N)=O)NC(=O)[C@H](CCC(N)=O)NC1=O [Compound 4] | 10-100 fold OT
CC[C@H](C)[C@@H]1NC(=O)[C@H](Cc2ccc(OC)cc2)NC(=O)CCCSC[C@@H](C(=O)N(CC(=O)N[C@@H](CNC(C)=O)C(=O)NCC(N)=O)Cc2ccc(F)cc2)NC(=O)[C@H](CC(N)=O)NC(=O)[C@H](CCC(N)=O)NC1=O [Compound 8] (Y(Me)IQNC[N(4-F-Bzl)Gly][Dap](Ac)G-NH2; linker N-5 via X1) | 10-100 fold OT
CC[C@H](C)[C@@H]1NC(=O)[C@](C)(Cc2ccc(O)cc2)NC(=O)CCCSC[C@@H](C(=O)N2CSC[C@H]2C(=O)N[C@@H](CCCCNC(C)=O)C(=O)NCC(N)=O)NC(=O)[C@H](CC(N)=O)NC(=O)[C@H](CCC(N)=O)NC1=O [Compound 17] ([αMeY]IQNC[Thz]K(Ac)G-NH2; linker N-5 via X1) | >100 fold OT
CC[C@H](C)[C@@H]1NC(=O)[C@H](Cc2ccc(C(F)(F)F)cc2)NC(=O)CCCSC[C@@H](C(=O)N2CCC[C@H]2C(=O)N[C@@H](CNC(C)=O)C(=O)NCC(N)=O)NC(=O)[C@H](CC(N)=O)NC(=O)[C@H](CCC(N)=O)NC1=O [Compound 12] | >100 fold OT
COc1ccc(C[C@@H]2NC(=O)CCCSC[C@@H](C(=O)N3CCC[C@H]3C(=O)N[C@@H](CNC(C)=O)C(=O)NCC(N)=O)NC(=O)[C@H](CC(N)=O)NC(=O)[C@H](CCC(N)=O)NC(=O)[C@H](C3CCCC3)NC2=O)cc1 [Compound 14] (Y(Me)[Gly(cPent)]QNCP[Dap](Ac)G-NH2; linker N-5 via X1) | >100 fold OT
COc1ccc(C[C@@H]2NC(=O)CCCSC[C@@H](C(=O)N3CSC[C@H]3C(=O)N[C@@H](CCCCNC(C)=O)C(=O)NCC(N)=O)NC(=O)[C@H](CC(N)=O)NC(=O)[C@H](CCC(N)=O)NC(=O)[C@H](C3CCCC3)NC2=O)cc1 [Compound 23] (Y(Me)[Gly(cPent)]QNC[Thz]K(Ac)G-NH2; linker N-5 via X1) | >100 fold OT
CC[C@H](C)[C@@H]1NC(=O)[C@](C)(Cc2ccccc2)NC(=O)CCCSC[C@@H](C(=O)N2CCC[C@H]2C(=O)N[C@@H](CNC(C)=O)C(=O)NCC(N)=O)NC(=O)[C@H](CC(N)=O)NC(=O)[C@H](CCC(N)=O)NC1=O [Compound 10] | >100 fold OT
CC[C@H](C)[C@@H]1NC(=O)[C@H](Cc2ccc(OC)cc2)NC(=O)CCCSC[C@@H](C(=O)N2CCC[C@H]2C(=O)N[C@@H](CNC(=O)C(C)(C)C)C(=O)NCC(N)=O)NC(=O)[C@H](CC(N)=O)NC(=O)[C@H](CCC(N)=O)NC1=O [Compound 13] (Y(Me)IQNCP[Dap](Piv)G-NH2; linker N-5 via X1) | > 100 fold OT
CC[C@H](C)[C@@H]1NC(=O)[C@H](Cc2ccc(O)cc2)NC(=O)[C@@H](N)CSSC[C@@H](C(=O)N2CCC[C@H]2C(=O)N[C@@](C)(CC(C)C)C(=O)NCC(N)=O)NC(=O)[C@H](CC(N)=O)NC(=O)[C@H](CCC(N)=O)NC1=O [Compound 3] | 10-100 fold OT
CC(=O)NCCCC[C@H](NC(=O)[C@@H]1CCCN1C(=O)[C@@H]1CSCCCC(=O)N[C@@H](Cc2ccc(O)cc2)C(=O)N[C@@](C)(C(C)C)C(=O)N[C@@H](CCC(N)=O)C(=O)N[C@@H](CC(N)=O)C(=O)N1)C(=O)NCC(N)=O [Compound 19] (Y[αMeV]QNCPK(Ac)G-NH2; linker N-5 via X1) | >100 fold OT
CC[C@H](C)[C@@H]1NC(=O)[C@H](Cc2ccc(OC)cc2)NC(=O)CCCSC[C@@H](C(=O)N2CCC[C@H]2C(=O)N[C@@](C)(CC(C)C)C(=O)NCC(N)=O)NC(=O)[C@H](CC(N)=O)NC(=O)[C@H](CCC(N)=O)NC1=O [Compound 7] (Y(Me)IQNCP[αMeL]G-NH2; linker N-5 via X1) | >100 fold OT
CC[C@H](C)[C@@H]1NC(=O)[C@H](Cc2ccc(OC)cc2)NC(=O)CCCSC[C@@H](C(=O)N2CCC[C@H]2C(=O)N[C@@H](CNC(C)=O)C(=O)NCC(N)=O)NC(=O)[C@H](CC(N)=O)NC(=O)[C@H](CCC(N)=O)NC1=O [Compound 6] (Y(Me)IQNCP[Dap](Ac)G-NH2; linker N-5 via X1) | >100 fold OT
CC[C@H](C)[C@@H]1NC(=O)[C@H](Cc2ccc(C)cc2)NC(=O)CCCSC[C@@H](C(=O)N2CCC[C@H]2C(=O)N[C@@H](CNC(C)=O)C(=O)NCC(N)=O)NC(=O)[C@H](CC(N)=O)NC(=O)[C@H](CCC(N)=O)NC1=O [Compound 11] | 10-100 fold OT
CC(=O)NC[C@H](NC(=O)[C@@H]1CCCN1C(=O)[C@@H]1CSCCCC(=O)N[C@@H](Cc2ccc(O)cc2)C(=O)N[C@@](C)(C(C)C)C(=O)N[C@@H](CCC(N)=O)C(=O)N[C@@H](CC(N)=O)C(=O)N1)C(=O)NCC(N)=O [Compound 15] (Y[αMeV]QNCP[Dap](Ac)G-NH2; linker N-5 via X1) | >100 fold OT
CC(=O)NCCCC[C@H](NC(=O)[C@@H]1CSCN1C(=O)[C@@H]1CSCCCC(=O)N[C@@](C)(Cc2ccc(O)cc2)C(=O)N[C@@H](C2CCCC2)C(=O)N[C@@H](CCC(N)=O)C(=O)N[C@@H](CC(N)=O)C(=O)N1)C(=O)NCC(N)=O [Compound 18] ([αMeY][Gly(cPent)]QNC[Thz]K(Ac)G-NH2; linker N-5 via X1) | >100 fold OT
CC[C@H](C)[C@@H]1NC(=O)[C@H](Cc2ccc(O)cc2)NC(=O)[C@@H](N)CSSC[C@@H](C(=O)N2CCC[C@H]2C(=O)N[C@@H](CCCCNC(C)=O)C(=O)NCC(N)=O)NC(=O)[C@H](CC(N)=O)NC(=O)[C@H](CCC(N)=O)NC1=O [Compound 1] | 10-100 fold OT
CC[C@H](C)[C@@H]1NC(=O)[C@H](Cc2ccc(O)cc2)NC(=O)[C@@H](N)CSSC[C@@H](C(=O)N2CCC[C@H]2C(=O)N[C@@H](CNC(C)=O)C(=O)NCC(N)=O)NC(=O)[C@H](CC(N)=O)NC(=O)[C@H](CCC(N)=O)NC1=O [Compound 2] | 10-100 fold OT
